Assay results published in paper PMC10445290, “Enantiomeric Fractions Reveal Differences in the Atropselective Disposition of 2,2′,3,5′,6-Pentachlorobiphenyl (PCB 95) in Wildtype, Cyp2abfgs-Null, and CYP2A6-Humanized Mice” (Chemical Research in Toxicology, 2023).

Assay: Atropisomeric analysis of PCB 95 (enantiomeric fraction, EF) in tissues by chiral GC-ECD
Assay type: in vivo, mice
Conditions: racemic PCB 95 1.0 mg/kg oral, 24 h, EF = AE1/(AE1 + AE2)
Method: Adult male and female wild-type (WT) C57BL/6 mice, KO, and KI mice (4 months old) were exposed to racemic PCB 95. Mice were randomly assigned to exposure groups and received a single oral dose of PCB 95 (1.0 mg/kg) in stripped corn oil (10 mL/kg; lot# A0395699; cat# 801-03-7; Fisher Scientific) via gavage (5–7 mice per group). Control animals received corn oil alone (1–3 mice per group) to assess the potential background contamination with PCB 95. Animals were euthanized 24 h after PCB 95 exposure. Blood was collected from the heart and placed in pre-weighed glass vials with 80 μL of ethylenediaminetetraacetic acid solution (EDTA, 7.5%, w/w). The amount of blood in each vial was determined by weight prior to sample extraction. Adipose, brain, and liver tissues were excised from each animal and individually wrapped in aluminum foil. Samples were stored at −80 °C in separate plastic bags and shipped on dry ice to the University of Iowa for analysis.
Atropisomeric analyses of PCB 95 were performed with all samples using an Agilent 7890A gas chromatograph with a ^63Ni-μECD detector and a Chiralsil-Dex CB (25 m length, 250 μm inner diameter, 0.25 μm film thickness; Agilent, Santa Clara, CA, USA) following a published method with modifications.[48] The following temperature program was used for the atropisomeric analysis: 50 °C, hold for 1 min, 10 °C/min to 150 °C, hold for 65 min, 15 °C/min to 200 °C, and hold for 15 min. The injector and detector temperature was 250 °C, and the helium flow was 3.0 mL/min. The EF values of PCB 95 were calculated as EF = AE1/(AE1 + AE2) where AE1 and AE2 are the peak area of the first (E1) and the second eluting (E2) atropisomers, respectively. E1- and E2-PCB 95 correspond to aR- and aS-PCB 95, respectively.[16],[25]
Method blanks, blank tissue samples, and an ongoing precision and recovery standard were extracted in parallel with each sample batch. The method detection limits (MDLs) were determined based on method blanks (Table S3). Limits of quantification (LOQ) in different matrices were established based on the corresponding tissue blanks (Table S3). Surrogate standards, PCB 117 and 4′-159, were added to all samples to assess the precision and reproducibility of the analytical methods (Table S4). In addition, an ongoing precision and surrogate standard was in parallel extracted from both method and tissue blanks with each sample batch (Table S5). The resolution of atropisomers of PCB 95 on the Chiralsil Dex CB column was 1.27, calculated with the formula Rs = [tE2 – tE1)/(0.5 × (WE1 + WE2)], where tE1 and tE2 are the retention times of peaks 1 and 2, and WE1 and WE2 indicate the width of the peak E1 and E2. The EF value of the racemic standard of PCB 95 was 0.498 ± 0.004 (n = 7).
Levels of PCB 95 and its metabolites, expressed as ng per gram wet weight (ng/g), and EF values are reported as mean ± standard deviation (Tables S6 and S7). The statistical analyses were performed with two-way ANOVA with the Bonferroni model in GraphPad Prism 9.4.1 (Tables S8 and S9). In addition, OH-PCB metabolite profiles were compared using the similarity coefficient, cos θ (Tables S10 and S11).[49] The cos θ ranges from 0 to 1, where a value of 0 indicates completely different profiles and a value of 1 indicates identical profiles. The original data underlying this study are openly available through the Iowa Research Online repository at https://doi.org/10.25820/data.006613.

[1] = FKI, female CYP2A6-humanized mice
[2] = FKO, female Cyp2abfgs-null mice
[3] = MKI, male CYP2A6-humanized mice

With `Clc1ccc(Cl)c(-c2c(Cl)ccc(Cl)c2Cl)c1` [PCB 95, 2,2′,3,5′,6-pentachlorobiphenyl] the “Enantiomeric fraction (EF) in adipose” value [1] was 0.35 ± 0.02, the “Enantiomeric fraction (EF) in blood” value [1] was 0.28 ± 0.07 and the “Enantiomeric fraction (EF) in brain” value [1] was 0.29 ± 0.01. For the same compound, the “Enantiomeric fraction (EF) in liver” value [1] was 0.24 ± 0.03, the “Enantiomeric fraction (EF) in adipose” value [2] was 0.41 ± 0.05 and the “Enantiomeric fraction (EF) in blood” value [2] was 0.37 ± 0.07. For the same compound, the “Enantiomeric fraction (EF) in brain” value [2] was 0.39 ± 0.05, the “Enantiomeric fraction (EF) in liver” value [2] was 0.32 ± 0.06 and the “Enantiomeric fraction (EF) in adipose” value (FWT, female wildtype mice) was 0.33 ± 0.02. For the same compound, the “Enantiomeric fraction (EF) in blood” value (FWT, female wildtype mice) was 0.32 ± 0.07, the “Enantiomeric fraction (EF) in brain” value (FWT, female wildtype mice) was 0.25 ± 0.03 and the “Enantiomeric fraction (EF) in liver” value (FWT, female wildtype mice) was 0.20 ± 0.03. For the same compound, the “Enantiomeric fraction (EF) in adipose” value [3] was 0.36 ± 0.02, the “Enantiomeric fraction (EF) in blood” value [3] was 0.31 ± 0.03 and the “Enantiomeric fraction (EF) in brain” value [3] was 0.32 ± 0.02. For the same compound, the “Enantiomeric fraction (EF) in liver” value [3] was 0.27 ± 0.03, the “Enantiomeric fraction (EF) in adipose” value (MKO, male Cyp2abfgs-null mice) was 0.38 ± 0.03 and the “Enantiomeric fraction (EF) in blood” value (MKO, male Cyp2abfgs-null mice) was 0.35 ± 0.04. The “Enantiomeric fraction (EF) in brain” value (MKO, male Cyp2abfgs-null mice) was 0.34 ± 0.03, the “Enantiomeric fraction (EF) in liver” value (MKO, male Cyp2abfgs-null mice) was 0.28 ± 0.04 and the “Enantiomeric fraction (EF) in adipose” value (MWT, male wildtype mice) was 0.37 ± 0.01. For the same compound, the “Enantiomeric fraction (EF) in blood” value (MWT, male wildtype mice) was 0.28 ± 0.02, the “Enantiomeric fraction (EF) in brain” value (MWT, male wildtype mice) was 0.31 ± 0.02 and the “Enantiomeric fraction (EF) in liver” value (MWT, male wildtype mice) was 0.26 ± 0.02.
